Data taken from patent publication US12331033B2, “Inhibitors of SARM1” (Disarm Therapeutics, Inc., priority 2020, dated 2025).

Each compound was assayed against SARM1 (ARM-SAM-TIR) (Homo sapiens (Human), UniProt Q6SZW1) (assay: ARM-SAM-TIR SARM1 IC50 assay (NADase activity, NAD+ cleavage, RapidFire MS)). Details: ARM-SAM-TIR lysate 5 μg/mL, 2 h pre-incubation, 5 μM NAD+, 2 hr room temperature.
Assay type: biochemical
Summary of the method: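 Lysate of NRK1-HEK293T cells transfected with full-length ARM-SAM-TIR SARM1 (5 μg/mL final) pre-incubated with compound (1% DMSO) 2 h at room temperature in Dulbecco's PBS. Reaction started with 5 μM NAD+, run 2 hr at room temperature, then stopped with TCA/acetonitrile. NAD+ and ADPR quantified by RapidFire MS.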

Chain of SARM1 (ARM-SAM-TIR) (Q6SZW1 other isoform, or with tags, fused parts or gaps): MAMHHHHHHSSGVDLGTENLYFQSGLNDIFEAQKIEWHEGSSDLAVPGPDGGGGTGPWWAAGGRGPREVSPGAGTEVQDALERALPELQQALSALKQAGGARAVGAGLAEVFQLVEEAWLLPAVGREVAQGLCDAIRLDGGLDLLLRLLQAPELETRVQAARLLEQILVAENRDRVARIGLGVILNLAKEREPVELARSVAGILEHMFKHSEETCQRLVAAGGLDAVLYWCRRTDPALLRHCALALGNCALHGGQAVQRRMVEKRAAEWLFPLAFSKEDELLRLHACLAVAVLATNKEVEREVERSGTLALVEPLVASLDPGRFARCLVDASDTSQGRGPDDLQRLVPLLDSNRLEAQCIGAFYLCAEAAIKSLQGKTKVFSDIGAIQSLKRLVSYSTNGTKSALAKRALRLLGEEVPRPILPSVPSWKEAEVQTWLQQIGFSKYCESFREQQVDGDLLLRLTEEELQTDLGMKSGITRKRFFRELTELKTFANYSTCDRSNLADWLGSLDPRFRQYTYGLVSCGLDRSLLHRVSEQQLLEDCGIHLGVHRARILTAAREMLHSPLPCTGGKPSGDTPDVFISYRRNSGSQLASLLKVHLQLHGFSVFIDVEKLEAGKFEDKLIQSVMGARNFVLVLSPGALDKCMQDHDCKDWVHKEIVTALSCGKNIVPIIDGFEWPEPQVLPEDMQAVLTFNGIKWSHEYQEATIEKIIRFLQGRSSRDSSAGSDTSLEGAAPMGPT

SMILES | IC50 [µM]
N#Cc1c(-c2ccncc2F)n[nH]c1NC(=O)CCc1ccc(Cl)cc1 [Example 325] | < 5
O=C(CCc1ccc(F)cc1)Nc1nnc(-c2ccncc2)[nH]1 [Example 125] | < 5
Cc1c(-c2ccncc2)n[nH]c1NC(=O)CN(C)c1ccc(Cl)cc1 [Example 224] | 5 to 15
O=C(CCc1ccc(C(F)(F)F)cc1)Nc1nnc(-c2ccncc2)[nH]1 [Example 124] | < 5
Clc1ccc(CCCNc2nnc(-c3ccncc3)[nH]2)cc1 [Example 41] | > 30
O=C(CC1CCOc2cc(Cl)ccc21)Nc1nnc(-c2ccncc2)[nH]1 (stereo not shown) [Example 29] | < 5
Cc1[nH]c(NC(=O)CCc2ccc(Cl)nc2)nc1-c1ccncc1 [Example 250] | < 5
O=C(CCc1ccc(Cl)s1)Nc1cc(-c2ccncc2)[nH]n1 [Example 54] | < 5
Cn1nc(NC(=O)CCc2ccccc2)nc1-c1ccncc1 [Example 111] | > 30
O=C(Cc1ccc(Cl)cc1)Nc1nnc(-c2ccncc2)[nH]1 [Example 65] | < 5
COc1ccccc1CCC(=O)Nc1nnc(-c2ccncc2)[nH]1 [Example 107] | < 5
O=C(CNc1ccc(Cl)cc1)Nc1cc(-c2ccncc2)n[nH]1 [Example 4] | < 5
O=C(CCc1ccc(Cl)cc1)Nc1cc(-c2c(F)cncc2F)n[nH]1 [Example 300] | < 5
O=C(C[C@H]1CCOc2cc(Cl)ncc21)Nc1nnc(-c2ccncc2)[nH]1 [Example 234] | < 5
Cc1c(-c2ccncc2)n[nH]c1NC(=O)CCc1cc(F)ccc1F [Example 249] | < 5
O=C(Nc1cc(-c2ccnnc2)n[nH]1)[C@H]1C[C@H](c2ccc(Cl)cc2)C1 [Example 197] | < 5
[2H]C([2H])(C(=O)Nc1cc(-c2ccncc2)n[nH]1)C([2H])([2H])c1ccc(Cl)nc1 [Example 9] | < 5
COCc1c(-c2ccncc2)n[nH]c1NC(=O)CCc1ccc(Cl)cc1 [Example 284] | < 5
[2H]C([2H])(C(=O)Nc1[nH]nc(-c2ccncc2)c1C)C([2H])([2H])c1ccc(Cl)nc1 [Example 171] | < 5
O=C(NCc1cccc(Cl)c1)Nc1nnc(-c2ccncc2)[nH]1 [Example 160] | < 5
Cc1ccc(CCC(=O)Nc2nnc(-c3ccncc3)[nH]2)cc1 [Example 139] | < 5
Cc1c(-c2ccncc2)n[nH]c1NC(=O)CNC(=O)CC(C)(C)C [Example 259] | 5 to 15
O=C(CCc1ccc(Cl)c(F)c1)Nc1nnc(-c2ccncc2)[nH]1 [Example 45] | < 5

SMILES | IC50 [µM]
O=C(CCc1ccc(Cl)cc1)Nc1cc(-c2ccncc2F)n[nH]1 [Example 25] | < 5
O=C(CCc1cccc(F)c1)Nc1cc(-c2ccncc2)n[nH]1 [Example 14] | < 5
N#Cc1c(-c2ccncc2)n[nH]c1NC(=O)CCc1ccc(Cl)cc1 [Example 186] | < 5
Cc1c(-c2ccnnc2)n[nH]c1NC(=O)CCc1ccc(Cl)nc1 [Example 205] | < 5
Cc1c(-c2ccncc2)n[nH]c1NC(=O)[C@@H](N)Cc1ccc(Cl)cc1 [Example 201] | < 5
O=C(CCc1ccc(Cl)cc1)Nc1nnc(-c2ccnc(O)c2)[nH]1 [Example 33] | > 30
Cc1c(-c2ccncc2)n[nH]c1NC(=O)C1CN(c2ccc(Cl)cc2)C1 [Example 220] | 5 to 15
Cc1c(-c2ccnnc2)n[nH]c1NC(=O)C[C@H]1CCOc2cc(Cl)ccc21 [Example 278] | < 5
CC(Cc1ccccc1)C(=O)Nc1nnc(-c2ccncc2)[nH]1 (stereo not shown) [Example 95] | 5 to 15
O=C(CCc1ccc(Cl)c(Br)c1)Nc1nnc(-c2ccncc2)[nH]1 [Example 10] | < 5
O=C(C[C@@H]1CCOc2ccccc21)Nc1nnc(-c2ccncc2)[nH]1 [Example 71] | < 5
O=C(CCc1ncc(C(F)(F)F)cn1)Nc1nnc(-c2ccncc2)[nH]1 [Example 57] | 15 to 30
CC(C)(Cc1ccccc1)C(=O)Nc1nnc(-c2ccncc2)[nH]1 [Example 96] | 5 to 15
Cc1c(-c2ccncc2)n[nH]c1NC(=O)CCc1ccc(Cl)s1 [Example 202] | < 5
O=C(CN1C(=O)COc2ccccc21)Nc1nnc(-c2ccncc2)[nH]1 [Example 80] | 15 to 30
O=C(CCc1ccc(Cl)cc1)Nc1nnc(-c2c(F)cncc2F)[nH]1 [Example 315] | 5 to 15
O=C(CCc1ccc(Cl)nc1)Nc1[nH]nc(-c2ccncc2)c1Cl [Example 271] | < 5
O=C(CCc1ccc(C(F)(F)F)nc1)Nc1nnc(-c2ccncc2)[nH]1 [Example 86] | < 5
COc1cnccc1-c1nnc(NC(=O)CCc2ccc(Cl)cc2)[nH]1 [Example 32] | < 5
O=C(CCc1ccc(C(F)(F)F)cc1)Nc1[nH]nc(-c2ccnnc2)c1Br [Example 158] | < 5
O=C(CCc1ccc(C(F)(F)F)cc1)Nc1cc(-c2ccnnc2)n[nH]1 [Example 30] | < 5
O=C(CCc1ccc(C(F)(F)F)cc1)Nc1cc(-c2ccncc2)[nH]n1 [Example 62] | < 5
O=C(Nc1nnc(-c2ccncc2)[nH]1)C1CCc2ccccc2C1 (stereo not shown) [Example 131] | < 5
